Experimental data published in patent US10137106B2, “Compositions and methods to treat niemann-pick disease” (Blanchette Rockefeller Neurosciences Institute, Inc., priority 2014, dated 2018).

Key:
Assay type in all cases: cell-based
[1] = target: T1, PKC α (Homo sapiens, UniProt P17252); test: PKC α activation in SH-SY5Y cells (cytosol/membrane fractions, isoform-specific antibodies); settings: 0.27 nM, 5-60 min (FIG. 3)
Procedure: Three independent experiments were performed for each sample.
(§1) The homogenate was centrifuged at 100,000×g for 15 min at 4° C. to obtain the cytosolic fraction (supernatant) and membrane (pellet). […] The separated protein was then transferred to a nitrocellulose membrane.

[2] = target: T2, PKC ε (Homo sapiens, UniProt Q02156); test: PKC ε activation (membrane translocation, immunoblot) in primary human neurons; set-up: host or cells: primary human cortical neurons
T2 sequence (Q02156 1-737): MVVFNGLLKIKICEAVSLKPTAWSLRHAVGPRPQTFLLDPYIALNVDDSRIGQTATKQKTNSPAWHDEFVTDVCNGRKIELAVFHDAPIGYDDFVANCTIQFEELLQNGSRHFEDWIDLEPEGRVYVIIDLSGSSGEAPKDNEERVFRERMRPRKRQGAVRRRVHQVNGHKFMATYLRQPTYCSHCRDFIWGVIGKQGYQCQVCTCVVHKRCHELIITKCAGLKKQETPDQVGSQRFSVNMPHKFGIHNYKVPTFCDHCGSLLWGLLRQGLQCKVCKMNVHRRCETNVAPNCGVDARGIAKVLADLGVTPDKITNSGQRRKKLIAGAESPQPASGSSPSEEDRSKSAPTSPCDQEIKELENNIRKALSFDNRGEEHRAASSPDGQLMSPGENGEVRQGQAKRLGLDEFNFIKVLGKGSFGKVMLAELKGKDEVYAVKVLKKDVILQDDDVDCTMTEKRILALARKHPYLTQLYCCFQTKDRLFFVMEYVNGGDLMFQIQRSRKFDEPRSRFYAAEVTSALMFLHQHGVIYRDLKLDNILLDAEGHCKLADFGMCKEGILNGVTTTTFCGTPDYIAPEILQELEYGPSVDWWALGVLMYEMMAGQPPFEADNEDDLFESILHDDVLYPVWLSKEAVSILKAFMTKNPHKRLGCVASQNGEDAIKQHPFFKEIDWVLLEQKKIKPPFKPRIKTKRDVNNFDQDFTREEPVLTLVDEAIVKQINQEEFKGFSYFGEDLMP
Procedure: PKC isozyme activation by bryostatin-1 at various concentrations in primary human neurons was evaluated. One month old primary human neurons were treated with 0 nM, 0.060 nM, 0.125 nM, 0.25 nM, 0.5 nM and 1.0 nM bryostatin 1 for 24 hr. Neurons were separated into soluble and membrane fractions and immunoblotted against PKC α and PKC ε. PKC activation was measured as the percentage of total protein in the membrane and reported as percentage of control. PKC staining levels were measured densitometrically. Data are represented as mean±SE of three independent experiments (Students t-test, *P<0.05 and **P<0.005).
PKC isozyme activation by bryostatin-1 at 0.25 nM in primary human neurons was evaluated. One month old primary human neurons were treated with ethanol (C), bryostatin 1 (0.25 nM) for 1 hr, 4 hr and 24 hr. Neurons were separated into soluble (S) and membrane (P) fractions and immunoblotted against PKC α, PKC ε and PKC δ. PKC activation was measured as the percentage of total protein in the membrane and reported as percentage of control. PKC staining levels were measured densitometrically.
Culture of primary human cortical neurons: Human primary neurons (ScienCell Research Laboratories, Carlsbad, Calif., USA) were plated on poly-L-lysine coated plates and were maintained in neuronal medium (ScienCell Research Laboratories, Carlsbad, Calif., USA) supplemented with the neuronal growth supplement (NGS, ScienCell Research Laboratories, Carlsbad, Calif., USA). For maintenance of neurons, half of the media was changed every 3 days. Fresh activators were added with every media change.
(§2) Cell lysis and Western blot analysis: Cells were harvested in homogenizing buffer (HB) containing 10 mM Tris-Cl (pH 7.4), 1 mM PMSF (phenylmethylsulfonylfluoride), 1 mM EGTA, 1 mM EDTA, 50 mM NaF and 20 μM leupeptin, and were lysed by sonication. The homogenate was centrifuged at 100,000×g for 15 min at 4° C. to obtain the cytosolic fraction (supernatant) and membrane (pellet). The pellet was resuspended in the HB by sonication. Protein concentration was measured using the Coomassie Plus (Bradford) Protein Assay kit (Pierce, Rockford, Ill., USA). Following quantification, 20 μg of protein from each sample was subjected to SDS-PAGE analysis in a 4-20% gradient Tris-Glycine polyacrylamide gel (Invitrogen, Carlsbad, Calif., USA). The separated protein was then transferred to a nitrocellulose membrane. The membrane was blocked with BSA and incubated with primary antibody overnight at 4° C. […] The blot was imaged in a ImageQuant RT-ECL (GE Life Sciences, Piscataway, N.J.) and densitometric quantification was performed using IMAL software. For quantifying expression of a protein, the densitometric value for the protein of interest was normalized against beta-actin (loading control).

[3] = target: T1, PKC α; test: PKC α activation (membrane translocation, immunoblot) in primary human neurons; set-up: host or cells: primary human cortical neurons
Procedure: as §1

[4] = target: T2, PKC ε; test: PKC ε activation in SH-SY5Y cells (cytosol/membrane fractions, isoform-specific antibodies); settings: 0.27 nM, 5-60 min (FIG. 3)
Procedure: PKC isozyme activation by bryostatin-1 at 0.27 nM in SH-SY5Y cells was evaluated. SH-SY5Y cells are human-derived cell line and are often used as in vitro models of neuronal function and differentiation. Cells were treated with bryostatin-1 (0.27 nM) for 0, 5, 15, 30 and 60 min. Samples were fractionated into cytosol and membrane fractions and analyzed with PKC isoform-specific antibodies. Three independent experiments were performed for each sample.
Cell culture and treatments: Human SH-SY5Y neuroblastoma cells (ATCC) were cultured in 45% F12K, 45% DMEM and 10% FBS.
as §2, with “The pellet was resuspended in the HB by sonication.” left out, “USA).” for “USA). The separated protein was then transferred to a nitrocellulose membrane. The membrane was blocked with BSA and incubated with primary antibody overnight at 4° C.”, “For quantifying expression of a protein, the densitometric value for the protein of interest was normalized against beta-actin (loading control).” left out

## CCC/C=C/C=C/C(=O)O[C@H]1/C(=C/C(=O)OC)C[C@H]2C[C@H]([C@@H](C)O)OC(=O)C[C@H](O)C[C@@H]3C[C@H](OC(C)=O)C(C)(C)[C@](O)(C[C@@H]4C/C(=C/C(=O)OC)C[C@H](/C=C/C(C)(C)[C@]1(O)O2)O4)O3 [bryostatin-1]
[1]
  PKC α activation: activated both PKC ε and PKC α
[2]; 0.25 nM, 1 hr, 4 hr and 24 hr (FIG. 2B)
  PKC-ε activation, time course: induced PKC-ε activation
[2]; 0.060-1.0 nM, 24 hr (FIG. 1)
  PKC ε activation (percentage of total protein in the membrane, percentage of control): activated both PKC ε and PKC α
[2]; about 1 nM, 24 hr
  PKC ε activation at about 1 nM: potent activation of both PKC ε and PKC α
[2]; low concentrations, 24 hr
  PKC ε activation at low concentrations: potent PKC ε activation
[3]; 0.060-1.0 nM, 24 hr (FIG. 1)
  PKC α activation (percentage of total protein in the membrane, percentage of control): activated both PKC ε and PKC α
[3]; about 1 nM, 24 hr
  PKC α activation at about 1 nM: potent activation of both PKC ε and PKC α
[4]
  PKC ε activation: activated both PKC ε and PKC α
